Experimental data: US4347177A, “Compounds and methods of making them” (Burroughs Wellcome Co., priority 1980, dated 1982)

Experiment: Pharmacokinetics of bupropion in plasma after oral administration to four normal male subjects (RIA using 3H bupropion)
Type: in vivo
Conditions: human plasma, oral 200 mg bupropion-HCl (two 100 mg tablets)
Experimental: Samples of six standard solutions of bupropion in blank plasma having concentrations of 0.39 to 50 ng/ml) are pipetted (0.1 ml each) in duplicate into 12×75 mm plastic tubes. Duplicate non-specific binding (no antibody) and maximum binding tubes (no unlabeled bupropion) receive 0.1 ml blank plasma. Spiked plasma controls at several concentrations of (e.g., 1.0, 10.0, and 100 ng/ml) and plasma samples for assay (diluted into the standard range with blank plasma if necessary) are assayed in duplicate. After being placed in an ice bath, all tubes receive (in order) 0.2 ml ^3 H bupropion (416 pg. containing approximately 10^4 cpm) and 0.7 ml anti-bupropion serum (raised to a ring-functionalized immunogen according to the present invention) (at pre-determined dilutions such that approximately 40% of the ^3 H bupropion added is bound), both in assay buffer (0.05 M phosphate-bufferedisotonic saline, containing 0.01 M EDTA and 0.1% gelatin, pH 7.0). […] The supernatants, containing antibody-bound ^3 H bupropion are carefully decanted into liquid scintillation cocktail for quantitation of ^3 H. After counts (minus average non-specific binding cpm) are expressed as percentages of average maximum binding cpm, bupropion concentrations in plasma samples and spiked controls are read from a standard curve (log concentration vs percent average maximum binding).
The procedure of Example X has been applied to a study of bupropion (supplied as Wellbatrin, produced by Burroughs Wellcome Co.) pharmacokinetics in plasma after oral administration of 200 mg bupropion-HCl (in two 100 mg tablets) to four normal male subjects. Venous blood samples were collected at various times following dosing, and concentrations in plasma samples determined as described. […]

CC(NC(C)(C)C)C(=O)c1cccc(Cl)c1 (racemic) [bupropion, (±)-2-tert-butylamino-3'-chloropropiophenone]
Cmax (mean ± S.D., read-out: maximum plasma bupropion concentration): 217 ± 37 ng/mL
Tmax (mean ± S.D., read-out: time to reach maximum concentration): 1.5 ± 0.4 h
half-life (± S.D., read-out: mean elimination half-life (converted)): 2.9 ± 0.4 h
